In ChEMBL document CHEMBL4265951, “Multi-target-directed ligands for Alzheimer's disease: Discovery of chromone-based monoamine oxidase/cholinesterase inhibitors” (Eur J Med Chem, 2018):
pIC50: −log10 of the molar value. Activity calls are given as the source filed them. No cut-off for these calls is given here.

Experiments:
Acetylcholinesterase [1] = biological target: T1, Acetylcholinesterase (Homo sapiens, UniProt P22303); assay: Inhibition of human AChE using acetylthiocholine iodide as substrate pretreated for 5 mins followed by substrate addition measured after 5 mins by Ellman's method
T1 sequence (P22303 whole entry): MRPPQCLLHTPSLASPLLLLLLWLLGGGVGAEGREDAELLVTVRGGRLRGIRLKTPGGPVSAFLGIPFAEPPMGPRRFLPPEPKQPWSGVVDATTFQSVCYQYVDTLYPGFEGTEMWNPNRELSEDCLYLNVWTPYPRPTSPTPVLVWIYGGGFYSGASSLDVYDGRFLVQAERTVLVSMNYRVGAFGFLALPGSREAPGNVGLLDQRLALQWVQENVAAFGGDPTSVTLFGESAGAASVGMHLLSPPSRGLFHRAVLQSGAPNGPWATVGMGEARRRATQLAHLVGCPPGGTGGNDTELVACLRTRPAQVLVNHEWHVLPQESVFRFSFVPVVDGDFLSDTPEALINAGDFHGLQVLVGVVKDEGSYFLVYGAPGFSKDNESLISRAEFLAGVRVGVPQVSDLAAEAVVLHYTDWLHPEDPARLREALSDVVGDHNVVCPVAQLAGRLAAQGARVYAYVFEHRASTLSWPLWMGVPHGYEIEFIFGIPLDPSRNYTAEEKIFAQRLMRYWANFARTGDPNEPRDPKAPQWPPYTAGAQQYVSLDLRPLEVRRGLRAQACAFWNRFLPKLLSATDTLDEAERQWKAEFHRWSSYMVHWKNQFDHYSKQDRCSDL

[2] = biological target: T2, Amine oxidase [flavin-containing] A (Homo sapiens, UniProt P21397); assay: Inhibition of human recombinant microsomal MAOA expressed in baculovirus infected BTI-TN-5B1- 4 cells using p-tyramine as substrate assessed as decrease in H2O2 production at 10 uM by amplex red-based fluorescence assay
T2 sequence (P21397 whole entry): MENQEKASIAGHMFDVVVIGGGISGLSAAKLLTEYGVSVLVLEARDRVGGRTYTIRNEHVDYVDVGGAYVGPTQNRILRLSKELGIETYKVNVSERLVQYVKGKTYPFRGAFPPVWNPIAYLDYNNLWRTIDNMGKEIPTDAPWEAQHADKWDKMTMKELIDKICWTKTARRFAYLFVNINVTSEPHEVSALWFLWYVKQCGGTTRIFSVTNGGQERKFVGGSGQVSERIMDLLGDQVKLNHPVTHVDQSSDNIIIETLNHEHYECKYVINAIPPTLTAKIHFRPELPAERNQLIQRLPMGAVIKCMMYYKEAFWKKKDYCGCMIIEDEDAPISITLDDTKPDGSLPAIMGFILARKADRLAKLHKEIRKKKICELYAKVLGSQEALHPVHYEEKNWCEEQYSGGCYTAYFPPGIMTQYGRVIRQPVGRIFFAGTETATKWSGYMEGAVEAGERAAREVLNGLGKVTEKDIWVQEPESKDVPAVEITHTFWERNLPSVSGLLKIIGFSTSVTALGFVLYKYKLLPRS

[3] = biological target: T3, Amine oxidase [flavin-containing] B (Homo sapiens, UniProt P27338); assay: Inhibition of human recombinant MAOB expressed in baculovirus infected BTI-TN-5B1- 4 cells using p-tyramine as substrate assessed as decrease in H2O2 production at 10 uM by amplex red-based fluorescence assay
T3 sequence (P27338 whole entry): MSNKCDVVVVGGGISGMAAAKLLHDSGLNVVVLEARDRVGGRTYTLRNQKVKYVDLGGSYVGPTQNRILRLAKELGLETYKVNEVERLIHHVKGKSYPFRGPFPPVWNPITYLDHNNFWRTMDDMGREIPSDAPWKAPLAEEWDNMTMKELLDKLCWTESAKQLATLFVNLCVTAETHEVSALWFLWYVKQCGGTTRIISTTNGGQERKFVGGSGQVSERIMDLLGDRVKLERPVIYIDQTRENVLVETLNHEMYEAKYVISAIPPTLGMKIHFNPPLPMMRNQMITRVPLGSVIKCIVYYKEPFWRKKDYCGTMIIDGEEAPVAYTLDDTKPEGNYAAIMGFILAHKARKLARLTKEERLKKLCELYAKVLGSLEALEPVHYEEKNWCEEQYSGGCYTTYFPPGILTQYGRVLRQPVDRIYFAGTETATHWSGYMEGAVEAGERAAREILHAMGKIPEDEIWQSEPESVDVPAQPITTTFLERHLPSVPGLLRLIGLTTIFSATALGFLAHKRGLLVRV

Cholinesterase [4] = biological target: T4, Cholinesterase (Homo sapiens, UniProt P06276); assay: Inhibition of human serum BuChE at 10 uM using butyrylthiocholine as substrate pretreated for 5 mins followed by substrate addition measured after 5 mins by Ellman's method
T4 sequence (P06276 whole entry): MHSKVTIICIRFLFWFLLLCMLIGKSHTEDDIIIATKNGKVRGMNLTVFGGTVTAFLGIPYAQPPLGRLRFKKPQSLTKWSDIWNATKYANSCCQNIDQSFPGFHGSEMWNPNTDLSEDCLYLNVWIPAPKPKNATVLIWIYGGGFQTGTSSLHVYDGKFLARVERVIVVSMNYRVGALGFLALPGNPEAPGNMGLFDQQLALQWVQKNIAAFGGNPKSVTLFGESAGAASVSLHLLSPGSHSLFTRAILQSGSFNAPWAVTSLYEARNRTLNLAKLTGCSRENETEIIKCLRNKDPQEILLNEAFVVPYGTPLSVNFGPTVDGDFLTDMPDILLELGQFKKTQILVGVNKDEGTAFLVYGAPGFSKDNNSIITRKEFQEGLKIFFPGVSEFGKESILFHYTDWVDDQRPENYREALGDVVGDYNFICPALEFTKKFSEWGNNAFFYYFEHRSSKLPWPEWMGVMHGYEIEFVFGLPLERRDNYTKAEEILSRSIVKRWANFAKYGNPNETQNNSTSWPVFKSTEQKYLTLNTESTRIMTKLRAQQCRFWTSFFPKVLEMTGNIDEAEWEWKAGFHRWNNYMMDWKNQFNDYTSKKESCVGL

in vitro = conditions: PAMPA
Description: Effective permeability of the compound at 1 mg/ml after 4 hrs by BBB-PAMPA method

Acetylcholinesterase [5] = biological target: T1, Acetylcholinesterase; assay: Inhibition of human AChE at 10 uM using acetylthiocholine iodide as substrate pretreated for 5 mins followed by substrate addition measured after 5 mins by Ellman's method
[6] = biological target: T3, Amine oxidase [flavin-containing] B; assay: biochemical; format: cell-based
Description: Inhibition of human recombinant MAOB expressed in baculovirus infected BTI-TN-5B1- 4 cells using p-tyramine as substrate assessed as decrease in H2O2 production by amplex red-based fluorescence assay

Cholinesterase [7] = biological target: T4, Cholinesterase; assay: Inhibition of human serum BuChE using butyrylthiocholine as substrate pretreated for 5 mins followed by substrate addition measured after 5 mins by Ellman's method
Beta-secretase 1 = Beta-secretase 1 (Homo sapiens, UniProt P56817); assay: Inhibition of human BACE1 using rhodamine-EVNLDAEFK-quencher as substrate after 60 mins by FRET assay
Chain of Beta-secretase 1 (P56817 whole entry): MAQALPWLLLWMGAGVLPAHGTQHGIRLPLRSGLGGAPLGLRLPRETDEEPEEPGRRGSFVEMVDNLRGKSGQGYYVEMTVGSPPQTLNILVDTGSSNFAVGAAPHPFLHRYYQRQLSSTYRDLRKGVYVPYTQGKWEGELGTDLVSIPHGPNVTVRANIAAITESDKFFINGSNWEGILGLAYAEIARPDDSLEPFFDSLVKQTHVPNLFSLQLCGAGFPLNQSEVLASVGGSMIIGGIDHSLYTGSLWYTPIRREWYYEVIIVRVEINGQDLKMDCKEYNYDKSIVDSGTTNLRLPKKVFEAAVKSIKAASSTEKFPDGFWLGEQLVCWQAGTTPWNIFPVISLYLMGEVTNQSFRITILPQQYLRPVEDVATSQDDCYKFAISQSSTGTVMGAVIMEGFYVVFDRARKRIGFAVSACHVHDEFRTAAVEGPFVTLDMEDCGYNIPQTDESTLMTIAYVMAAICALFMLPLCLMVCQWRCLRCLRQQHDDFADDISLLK

[8] = biological target: T2, Amine oxidase [flavin-containing] A; assay: biochemical
Description: Inhibition of human recombinant microsomal MAOA expressed in baculovirus infected BTI-TN-5B1- 4 cells using p-tyramine as substrate assessed as decrease in H2O2 production by amplex red-based fluorescence assay

Compound | pIC50 (Acetylcholinesterase [1]) | inhibition (INH) [2] | inhibition (INH) [3] | inhibition (Cholinesterase [4]) | Papp at 4 h, 1 mg/ml (in vitro) [×10⁻⁶ cm/s] | inhibition (Acetylcholinesterase [5]) | pIC50 [6] | pIC50 (Cholinesterase [7]) | pIC50 (Beta-secretase 1) | pIC50 [8]
CCN(CC)CCOC(=O)/C=C/c1ccc2occ(C(=O)Nc3ccc(C)cc3)c(=O)c2c1 | 5.05 | Not Active | Not Active | inactive |  |  |  |  |  | 
Cc1ccc(NC(=O)c2cc(=O)c3cc(/C=C/C(=O)O)ccc3o2)cc1 | 5.29 | Not Active | Not Active | inactive | 1.5 |  |  |  |  | 
O=C(O)/C=C/c1ccc2oc(C(=O)Nc3cccc(Cl)c3)cc(=O)c2c1 |  | Not Active | Not Active | inactive |  | inactive |  |  |  | 
CCN(CC)CCOC(=O)/C=C/c1ccc2oc(C(=O)Nc3ccc(OC)cc3)cc(=O)c2c1 | 5.94 | Not Active | Not Active | inactive |  |  |  |  |  | 
CCN(CC)CCOC(=O)/C=C/c1ccc2oc(C(=O)Nc3ccc(Cl)cc3)cc(=O)c2c1 | 6.07 | Not Active | Not Active | inactive |  |  |  |  |  | 
CCN(CC)CCOC(=O)/C=C/c1ccc2occ(C(=O)Nc3ccc(OC)cc3)c(=O)c2c1 | 5.27 | Not Active | Not Active | inactive |  |  |  |  |  | 
O=C(O)/C=C/c1ccc2oc(C(=O)Nc3ccc(Cl)cc3)cc(=O)c2c1 |  | Not Active | Not Active | inactive |  | inactive |  |  |  | 
COc1ccc(NC(=O)c2coc3ccc(/C=C/C(=O)O)cc3c2=O)cc1 | 5.06 | Not Active | Not Active | inactive |  |  |  |  |  | 
Cc1ccc(NC(=O)c2coc3ccc(/C=C/C(=O)OCCN(C)C)cc3c2=O)cc1 | 6.01 | Not Active |  |  | 9.7 |  | 5.63 | 5.13 | < 5.00 | 
CCN(CC)CCOC(=O)/C=C/c1ccc2occ(C(=O)Nc3ccc(C)c(C)c3)c(=O)c2c1 |  | Not Active | Not Active | inactive |  |  |  |  |  | 
CCN(CC)CCOC(=O)/C=C/c1ccc2oc(C(=O)Nc3cccc(Cl)c3)cc(=O)c2c1 | 5.35 | Not Active | Not Active | inactive |  |  |  |  |  | 
CN(C)CCOC(=O)/C=C/c1ccc2oc(C(=O)Nc3ccccc3)cc(=O)c2c1 | 6.13 | Not Active |  |  | 3.6 |  | 5.64 | 5.80 | < 5.00 | 
CCN(CC)CCOC(=O)/C=C/c1ccc2occ(C(=O)Nc3ccccc3)c(=O)c2c1 |  | Not Active | Not Active | inactive |  | inactive |  |  |  | 
Cc1ccc(NC(=O)c2coc3ccc(/C=C/C(=O)OCCN(C)C)cc3c2=O)cc1C |  | Not Active |  | inactive |  | inactive | 5.44 |  |  | 
COc1ccc(NC(=O)c2cc(=O)c3cc(/C=C/C(=O)O)ccc3o2)cc1 | 5.13 | Not Active | Not Active | inactive |  |  |  |  |  | 
CN(C)CCOC(=O)/C=C/c1ccc2occ(C(=O)Nc3cccc(Cl)c3)c(=O)c2c1 |  | Not Active |  | inactive |  | inactive | 5.66 |  |  | 
Cc1ccc(NC(=O)c2coc3ccc(/C=C/C(=O)O)cc3c2=O)cc1C |  | Not Active |  | inactive |  | inactive | 5.34 |  |  | 

Compound | pIC50 (Acetylcholinesterase [1]) | inhibition (INH) [2] | inhibition (INH) [3] | inhibition (Cholinesterase [4]) | Papp at 4 h, 1 mg/ml (in vitro) [×10⁻⁶ cm/s] | inhibition (Acetylcholinesterase [5]) | pIC50 [6] | pIC50 (Cholinesterase [7]) | pIC50 (Beta-secretase 1) | pIC50 [8]
Cc1ccc(NC(=O)c2cc(=O)c3cc(/C=C/C(=O)OCCN(C)C)ccc3o2)cc1C | 6.68 | Not Active | Not Active | inactive |  |  |  |  |  | 
CCN(CC)CCOC(=O)/C=C/c1ccc2oc(C(=O)Nc3ccc(C)cc3)cc(=O)c2c1 | 5.01 | Not Active | Not Active | inactive |  |  |  |  |  | 
CCN(CC)CCOC(=O)/C=C/c1ccc2occ(C(=O)Nc3ccc(Cl)cc3)c(=O)c2c1 | 5.11 | Not Active | Not Active | inactive |  |  |  |  |  | 
COc1ccc(NC(=O)c2cc(=O)c3cc(/C=C/C(=O)OCCN(C)C)ccc3o2)cc1 | 6.04 |  | Not Active | inactive |  |  |  |  |  | 5.31
COc1ccc(NC(=O)c2coc3ccc(/C=C/C(=O)OCCN(C)C)cc3c2=O)cc1 | 5.45 | Not Active | Not Active | inactive |  |  |  |  |  | 
Cc1ccc(NC(=O)c2cc(=O)c3cc(/C=C/C(=O)O)ccc3o2)cc1C |  | Not Active | Not Active | inactive |  | inactive |  |  |  | 
CCN(CC)CCOC(=O)/C=C/c1ccc2occ(C(=O)Nc3cccc(Cl)c3)c(=O)c2c1 | 5.07 | Not Active |  | inactive |  |  | 5.90 |  |  | 
O=C(O)/C=C/c1ccc2oc(C(=O)Nc3ccccc3)cc(=O)c2c1 | 5.22 | Not Active | Not Active | inactive | 0.9 |  |  |  |  | 
O=C(O)/C=C/c1ccc2occ(C(=O)Nc3cccc(Cl)c3)c(=O)c2c1 |  | Not Active | Not Active | inactive |  | inactive |  |  |  | 
O=C(O)/C=C/c1ccc2occ(C(=O)Nc3ccc(Cl)cc3)c(=O)c2c1 |  | Not Active | Not Active | inactive |  | inactive |  |  |  | 
CN(C)CCOC(=O)/C=C/c1ccc2oc(C(=O)Nc3cccc(Cl)c3)cc(=O)c2c1 | 5.23 | Not Active | Not Active | inactive |  |  |  |  |  | 
CCN(CC)CCOC(=O)/C=C/c1ccc2oc(C(=O)Nc3ccccc3)cc(=O)c2c1 | 5.46 | Not Active | Not Active | inactive |  |  |  |  |  | 
CCN(CC)CCOC(=O)/C=C/c1ccc2oc(C(=O)Nc3ccc(C)c(C)c3)cc(=O)c2c1 | 5.61 | Not Active |  | inactive |  |  | 5.60 |  |  | 
CN(C)CCOC(=O)/C=C/c1ccc2occ(C(=O)Nc3ccc(Cl)cc3)c(=O)c2c1 | 5.03 | Not Active |  | inactive |  |  | 6.14 |  |  | 
CN(C)CCOC(=O)/C=C/c1ccc2oc(C(=O)Nc3ccc(Cl)cc3)cc(=O)c2c1 | 5.91 | Not Active | Not Active | inactive |  |  |  |  |  | 
Cc1ccc(NC(=O)c2coc3ccc(/C=C/C(=O)O)cc3c2=O)cc1 |  | Not Active | Not Active | inactive | 1.6 | inactive |  |  |  | 
